The values that follow come from the supplement of paper PMC11061612.

Assay in all cases: combination Emax (second highest fraction inhibited in the dose matrix, 72 h); higher = more inhibition; extreme values may be limits of the assay
One assay has as its system RD (Rhabdomyosarcoma). A digest of the protocol: (§1)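 Bliss excess equals the observed combination effect minus the expected value EA + EB − EA·EB, where EA and EB are the effects of each agent alone. Combination Emax is the second-highest inhibition within the matrix. Inhibition was scaled from CellTiter-Glo 2.0 luminescence, with 0 set by vehicle wells and 1 by blank wells, after 72 hours of two-drug dosing of cells plated in 1536-well plates.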

In assay [1] the test system is SK-GT-4 (Esophageal Adenocarcinoma). The method, boiled down:
as §1

The test system of assay [2] is MN-60 (B-Lymphoblastic Leukemia). The method, boiled down: as §1
The subject of the next assay is NCI-H2731 (Mesothelioma). The method, boiled down: as §1
Assay [3] relates to SK-GT-2 (Gastric Carcinoma). A digest of the protocol: as §1
Assay [4] relates to VMRC-RCZ (Kidney Carcinoma). A digest of the protocol: as §1
Assay [5] has as its system KYSE-270 (Esophageal Squamous Cell Carcinoma). The method, boiled down: as §1
In assay [6] the test system is SU-DHL-5 (B-Cell Non-Hodgkin's Lymphoma). The method, boiled down:
as §1

Assay [7] has as its system NCI-H3122 (Lung Adenocarcinoma). A digest of the protocol: as §1
In assay [8] the test system is 8505C (Thyroid Gland Carcinoma). A digest of the protocol:
as §1

For assay [9], the system named is ST486 (Burkitt's Lymphoma). The method, boiled down: as §1
For assay [10], the system named is IM-95 (Gastric Carcinoma). A digest of the protocol:
as §1

Assay [11] relates to KMS-12-BM (Plasma Cell Myeloma). A digest of the protocol:
as §1

The subject of assay [12] is NCI-H526 (Small Cell Lung Carcinoma). The method, boiled down:
as §1

Assay [13] concerns COR-L279 (Small Cell Lung Carcinoma). A digest of the protocol: as §1
Assay [14] concerns NCI-H520 (Squamous Cell Lung Carcinoma). The method, boiled down:
as §1

Assay [15] relates to KY821 (Acute Myeloid Leukemia). The method, boiled down: as §1
Assay [16] concerns JHH-4 (Hepatocellular Carcinoma). A digest of the protocol: as §1
In assay [17] the test system is KP-3 (Pancreatic Carcinoma). A digest of the protocol: as §1
Another assay deals with M059J (Glioblastoma). A digest of the protocol:
as §1

Turning to `NC1(C(=O)N[C@@H](CCO)c2ccc(Cl)cc2)CCN(c2ncnc3[nH]ccc23)CC1` [Capivasertib] + C[C@@H]1COCCN1C2=NC(=NC(=C2)C3(CC3)[S@](=N)(=O)C)C4=C5C=CNC5=NC=C4 [AZD6738] (first compound max 10 µM, 7x7, partner max 10 µM), the “combination Emax” value was 0.402 in the assay with RD (Rhabdomyosarcoma); 0.614 in assay [1]; 0.715 in [2]; 0.514 in the assay with NCI-H2731 (Mesothelioma); 0.601 in [3]; 0.549 in assay [4]. Further, the “combination Emax” value in assay [5] turned out to be 0.651; in [6], 1; in [7], 0.727; in assay [8], 0.475; in [9], 0.881; in [10], 0.456. The “combination Emax” value stood at 0.823 in assay [11]; 0.779 in assay [12]; 0.853 in [13]; 0.711 in assay [14]; 1 in assay [15]; 0.309 in assay [16]. Also, the “combination Emax” value is 0.318 in [17] and 0.622 in the assay on M059J (Glioblastoma).

Turning to `NC1(C(=O)N[C@@H](CCO)c2ccc(Cl)cc2)CCN(c2ncnc3[nH]ccc23)CC1` [Capivasertib] + Cn1cnc2c(F)c(Nc3ccc(Br)cc3Cl)c(C(=O)NOCCO)cc21 [Selumetinib] (first compound max 10 µM, 7x7, partner max 10 µM), the “combination Emax” value in the assay on RD (Rhabdomyosarcoma) was found to be 0.633; in [1] it was 0.767; in assay [2], 0.188; with NCI-H2731 (Mesothelioma) it was 0.306; in [3], 0.497; in [4] it was 0.388. Also, the “combination Emax” value stood at 0.476 in assay [5]; 1 in [6]; 0.882 in assay [7]; 0.5 in assay [8]; 0.559 in [9]; 0.502 in assay [10]. The “combination Emax” value in assay [11] amounted to 0.427; in [12], 0.249; in assay [13] it was 0.551; in assay [14], 0.548; in assay [15] it was 0.891; in assay [16], 0.663. The “combination Emax” value in assay [17] came to 0.417; in the assay on M059J (Glioblastoma), 0.415.

Regarding `CN(CCO)CC[C@H](CSc1ccccc1)Nc1ccc(S(=O)(=O)NC(=O)c2ccc(N3CCC([C@@H](O)c4ccccc4-c4ccc(Cl)cc4)CC3)cc2)cc1S(=O)(=O)C(F)(F)F` [AZD4320] + C=CCn1c(=O)c2cnc(Nc3ccc(N4CCN(C)CC4)cc3)nc2n1-c1cccc(C(C)(C)O)n1 [AZD1775] (first compound max 1 µM, partner max 1 µM), the “combination Emax” value in the assay with RD (Rhabdomyosarcoma) was 0.92; in assay [1], 0.349; in assay [2] it was 0.292; in the assay on NCI-H2731 (Mesothelioma), 0.328; in [3], 0.983; in assay [4], 0.39. For the same compound, the “combination Emax” value in [5] was 0.632; in assay [6] it was 1; in assay [7], 0.845; in [8], 0.187; in assay [9], 1; in [10] it was 0.791. Also, the “combination Emax” value worked out at 1 in assay [11]; 0.972 in [12]; 1 in assay [13]; 0.76 in [14]; 1 in [15]; 0.688 in assay [16]. For the same compound, the “combination Emax” value in assay [17] is 0.314; in the assay with M059J (Glioblastoma), 0.783.

Take `CC1(C)CCC(CN2CCN(c3ccc(C(=O)NS(=O)(=O)c4ccc(NCC5CCOCC5)c([N+](=O)[O-])c4)c(Oc4cnc5[nH]ccc5c4)c3)CC2)=C(c2ccc(Cl)cc2)C1` [Venetoclax] + Cn1cnc2c(F)c(Nc3ccc(Br)cc3Cl)c(C(=O)NOCCO)cc21 [Selumetinib] (first compound max 1 µM, 7x7, partner max 3 µM): the “combination Emax” value is 0.217 with RD (Rhabdomyosarcoma); 0.473 in assay [1]; 0.347 in [2]; 0.0907 in the assay with NCI-H2731 (Mesothelioma); 0.0541 in [3]; 0.122 in assay [4]. For the same compound, the “combination Emax” value in assay [5] was determined as 0.554; in assay [6] it was 0.339; in assay [7], 0.387; in assay [8] it was 0.36; in assay [9], 0.754; in assay [10] it was 0.179. Further, the “combination Emax” value in assay [11] is 1; in [12] it was 0.625; in assay [13], 0.213; in assay [14] it was 0.113; in [15] it was 1; in assay [16] it was 0.188. For the same compound, the “combination Emax” value in assay [17] came out at 0.135; in the assay with M059J (Glioblastoma), 0.203.

Turning to `NC1(C(=O)N[C@@H](CCO)c2ccc(Cl)cc2)CCN(c2ncnc3[nH]ccc23)CC1` [Capivasertib] + CCN(CCO)CCCOc1ccc2c(Nc3cc(CC(=O)Nc4cccc(F)c4)[nH]n3)ncnc2c1 [AZD2811] (first compound max 10 µM, 7x7, partner max 1 µM), the “combination Emax” value in the assay on RD (Rhabdomyosarcoma) was 0.349; in assay [1], 0.621; in assay [2], 0.336; with NCI-H2731 (Mesothelioma) it was 0.398; in [3], 0.417; in [4], 0.461. The “combination Emax” value is 0.329 in assay [5]; 1 in [6]; 0.62 in [7]; 0.304 in [8]; 0.834 in [9]; 0.427 in [10]. Moreover, the “combination Emax” value in [11] was 0.522; in assay [12], 0.588; in [13] it was 0.935; in assay [14], 0.688; in assay [15] it was 0.613; in [16] it was 0.226. Also, the figures for the “combination Emax” value (in [17]; in the assay on M059J (Glioblastoma)) were 0.284 and 0.517, respectively.

Regarding `Cn1cnc2c(F)c(Nc3ccc(Br)cc3Cl)c(C(=O)NOCCO)cc21` [Selumetinib] + CCN(CCO)CCCOc1ccc2c(Nc3cc(CC(=O)Nc4cccc(F)c4)[nH]n3)ncnc2c1 [AZD2811] (first compound max 10 µM, 7x7, partner max 1 µM), the “combination Emax” value in the assay on RD (Rhabdomyosarcoma) turned out to be 0.297; in assay [1] it was 0.533; in assay [2] it was 0.342; in the assay on NCI-H2731 (Mesothelioma), 0.201; in [3], 0.173; in assay [4] it was 0.152. Also, the “combination Emax” value in assay [5] worked out at 0.295; in assay [6], 0.915; in assay [7] it was 0.653; in assay [8] it was 0.388; in [9], 0.852; in assay [10], 0.519. The “combination Emax” value was determined as 0.397 in assay [11]; 0.32 in assay [12]; 0.765 in assay [13]; 0.17 in assay [14]; 0.843 in [15]; 0.63 in [16]. The “combination Emax” value is 0.202 in assay [17] and 0.237 in the assay with M059J (Glioblastoma).

Regarding `COc1nnc2ccc(N3CCC(c4ccc(OCCN5CCN(C)C(=O)[C@H]5C)cc4)CC3)nn12` [AZD5153] + CCN(CCO)CCCOc1ccc2c(Nc3cc(CC(=O)Nc4cccc(F)c4)[nH]n3)ncnc2c1 [AZD2811] (first compound max 1 µM, 7x7, partner max 1 µM), the “combination Emax” value was 0.605 in the assay with RD (Rhabdomyosarcoma); 0.538 in [1]; 0.74 in assay [2]; 0.489 with NCI-H2731 (Mesothelioma); 0.302 in assay [3]; 0.367 in assay [4]. The “combination Emax” value in [5] is 0.439; in assay [6], 0.999; in [7], 0.668; in assay [8], 0.5; in assay [9], 0.936; in [10], 0.336. For the same compound, the “combination Emax” value was 0.998 in [11]; 0.944 in [12]; 0.907 in assay [13]; 0.691 in assay [14]; 1 in [15]; 0.367 in [16]. Also, the “combination Emax” value was 0.281 in assay [17] and 0.751 in the assay on M059J (Glioblastoma).
